Test results: article PMC11161644, “An effective and rapidly degradable disinfectant from disinfection byproducts” (Nature Communications, 2024)
Where “and” joins values, the source holds several entries; their conditions need not be identical. Equal entries are not always repeated. Where two headings read alike, the source gives them in different places.

What was measured:
P. dumerilii embryos = assay: Developmental toxicity assay with P. dumerilii embryos, dilution factor of in-use concentration (EC50,DF), also after degradation in darkness; assay type: in vivo, Platynereis dumerilii
Source text: The DBP doses for 3-log E. coli reduction (pH 7.2) were set as the in-use concentrations, which were serially diluted and added to the P. dumerilii embryos at 12-h postfertilization. A dilution factor was defined as the ratio of the in-use concentration to the exposure concentration. Each exposure set contained a control sample (i.e., the embryos at 12-h postfertilization developed in seawater without the addition of DBPs). By 24-h postfertilization, normally developed embryos should have reached the first larval stage. An inverted stereomicroscope (×40 magnification) was used to observe the larvae. The normal development percentage was calculated as the ratio of normally developed embryos to total embryos. By plotting the curve of the normal development percentage versus the dilution factor, the EC50,DF value (i.e., the dilution factor corresponding to 50% of the normal development percentage of the control sample) was obtained using SigmaPlot 12. The developmental toxicity test was conducted in duplicate.

S. aureus (ATCC 25923) = assay: Inactivation of S. aureus (contact time 5 min); assay type: cell-based, Staphylococcus aureus; conditions: Staphylococcus aureus, ATCC25923, 5 min, dose 300 mg L-1, pH 7.2, contact time 5 min
Description: The chemicals and reagents used are detailed in Supplementary Note 1. The bacteria E. coli (ATCC 25922) and S. aureus (ATCC 25923) were cultured aerobically in Luria-Bertani broth (Sigma-Aldrich) and Tryptone Soya broth (Oxoid), respectively, at 37 °C for 16 h. The fungus C. albicans (ATCC 14053) was aerobically cultured in Sabouraud Dextrose broth (Difco) at 37 °C for 24 h. The microorganism cells were harvested by centrifugation at 1200×g (10 min, 4 °C) and resuspended in phosphate-buffered saline (PBS, 10 mM, pH 7.2). The disinfection experiments were performed in PBS solutions (10 mM, pH 7.2) with an initial concentration of E. coli, S. aureus, or C. albicans of 10^6‒10^7 cells per milliliter. A contact time of 5 min was used in accordance with the recommended time range of 0.25–10 min by USEPA for surface disinfection. Preliminary tests were conducted to determine the appropriate range of DBP doses. The appropriate dose range was established when the lowest and highest doses could achieve <1-log and >3-log of microbial inactivation, respectively. Based on the preliminary results, a series of doses of DBPs were added to the cell suspensions at room temperature (22 ± 1 °C). After the contact time of 5 min, the microorganism cells were enumerated following a membrane filter method. Briefly, serial 10-fold dilutions were conducted for the disinfected samples and the control sample without disinfection. Each diluted suspension was subjected to filtration through 0.45-μm membrane, which was then placed on a petri dish. The Petri dishes containing E. coli, S. aureus, and C. albicans were incubated in m-FC medium (Becton Dickinson & Co) at 45 °C for 24 h, in Tryptone Soya broth at 37 °C for 24 h and in Sabouraud Dextrose broth at 37 °C for 24 h, respectively. After incubation, the colony-forming units within a statistically reasonable range (20–80) were counted.

[1] = Degradation in seawater in darkness (pH 6.2, 7.2, 8.2); conditions: seawater pH 8.2, darkness
Description: To study the DBP degradation in seawater in darkness, a DBP was added at 10 mg L^−1 to 50 mL pretreated seawater (pH 8.2) in the quartz flasks. The flasks were wrapped with aluminum foil to simulate the dark condition. The samples were kept at 20 °C in darkness for 0‒120 h, during which the sample was adjusted to pH 6.2 and 7.2 or maintained at pH 8.2 by adding 4 mM phosphate buffer (pH 6.2, 7.2, and 8.2, respectively).
(§1) For the DBP samples with and without sunlight, aliquots were taken at a specific reaction time. The sample aliquots were analyzed using Agilent high-performance liquid chromatography (HPLC) equipped with a Poroshell 120 EC-C18 column (4.6 × 150 mm, 4 µm particle size, Agilent) and a UV detector. The mobile phase, consisting of water (pre-adjusted to pH 2 with phosphoric acid) and acetonitrile at 50/50 (v/v), was applied at a flow rate of 1.0 mL min^−1. PCMX, 2,4-dihalophenols and 5-halosalicylic acids were detected at the wavelength of 230 nm. 2,5-Dihalohydroquinones and 2,6-DCQ were detected at the wavelength of 280 nm. All the degradation experiments were conducted in duplicate.

physchem = conditions: for half-life at 10 mg L−1: buffer, pH 8.2; for Ln (C/C0): seawater pH 8.2, solar irradiation, 0 h
Description: The solar photolysis experiments were conducted in a chamber equipped with eight simulated sunlight full-spectrum lamps (BlueMax 5900, Full Spectrum Solutions). The temperature in the chamber was maintained at 20 °C. The total intensity of simulated sunlight was determined using a digital photometer (DT-1010B, Shenzhen Golden Octopus, China). Quartz flasks were positioned in the chamber where the total intensity of simulated sunlight was 4.79 ± 0.04 mW cm^−2 for each quartz flask. […] A DBP was added at 10 mg L^−1 to 50 mL pretreated seawater (pH 8.2) in the quartz flasks and exposed to the simulated solar irradiation for 0‒96 h. Every 8 h, the quartz flasks were rotated in and out of the chamber, and the sample volume was determined and adjusted with ultrapure water to account for any water evaporation. During the solar irradiation experiments, the sample was adjusted to pH 6.2 and 7.2 or maintained at pH 8.2 by adding 4 mM phosphate buffer (pH 6.2, 7.2, and 8.2, respectively).
as §1

Structure (SMILES) | Normal development (%) (P. dumerilii embryos; dilution factor 9.6524) | Normal development (%) (P. dumerilii embryos; dilution factor 13.1623) | Normal development (%) (P. dumerilii embryos; dilution factor 16.0873) | Normal development (%) (P. dumerilii embryos; dilution factor 20.6836) | Normal development (%) (P. dumerilii embryos; dilution factor 28.9571) | Normal development (%) (P. dumerilii embryos; dilution factor 57.9141) | log reduction at 300 µg/mL (S. aureus (ATCC 25923); pH 7.2, read-out: Log (N/N0), S. aureus) | Ln (C/C0) ([1]; 0 h) | Ln (C/C0) ([1]; 24 h) | Ln (C/C0) ([1]; 48 h) | half-life at 10 mg L−1 (physchem) [h] | Ln (C/C0) (physchem) | Normal development (%) (P. dumerilii embryos; dilution factor 14.7221) | Normal development (%) (P. dumerilii embryos; dilution factor 16.1943) | Normal development (%) (P. dumerilii embryos; dilution factor 17.0467) | Normal development (%) (P. dumerilii embryos; dilution factor 17.9937) | Normal development (%) (P. dumerilii embryos; dilution factor 19.0522) | Normal development (%) (P. dumerilii embryos; dilution factor 21.5924) | log reduction at 300 µg/mL (S. aureus (ATCC 25923); pH 7.2, S. aureus, read-out: Log (N/N0))
Oc1ccc(Cl)cc1Cl [2,4-DCPh, 2,4-Dichlorophenol] | 0 | 7.691% and 7.509% | 35.5728% and 39.4272% | 55.5625% and 48.4375% | 80.2893% and 76.7107% | 81.6957% and 84.3043% | 0.626 | 0 | 0.008094 and 0.006005 | 0.007156 and 0.006397 | 45 | 0 | – | – | – | – | – | – | –
Oc1ccc(I)cc1I [2,4-DIPh, 2,4-diiodophenol] | – | – | – | – | – | – | – | 0 | 0.00447 and 0.004669 | 0.01674 and 0.0143 | 83 | 0 | 3.475% and 5.221% | 15.5532% and 11.251% | 28.4871% and 30.5605% | 62.9083% and 58.6107% | 71.0249% and 62.3085% | 85.4546% and 82.7272% | 4.49
